# Test results reported in PubChem BioAssay AID330 (DTP/NCI, 2004).
# “And” between values parts separate entries of the source, which are not always exact repeats. Equal values may be shown once. Toxic doses and inconclusive results are not listed. Peptide text beside a SMILES is read from it. * marks the point of attachment. Cbz = O=C(OCc1ccccc1)*
# Tested on: P388 leukemia ip, CD2F1 mice, survival T/C
# Assay: NCI In Vivo Anticancer Drug Screen. Data for tumor model P388 Leukemia (intraperitoneal) in CD2F1 (CDF1) mice
# Conditions: endpoint: median survival time, higher = longer survival
# Method in brief: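 Mice carrying the transplanted tumor received test compound or vehicle. Survival was recorded in each group, and the value is the treated-group measurement divided by that of the vehicle-treated control group.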
# [1] = dose: 50.0 mg/kg/injection, schedule: Q01DX005 (ip), vehicle: saline with Tween-80
# [2] = dose: 100.0 mg/kg/injection, schedule: Q01DX005 (ip), vehicle: saline with Tween-80
# [3] = dose: 200.0 mg/kg/injection, schedule: Q01DX005 (ip), vehicle: saline with Tween-80
# [4] = dose: 60.0 mg/kg/injection, schedule: Q01DX005 (ip), vehicle: saline with Tween-80
# [5] = dose: 120.0 mg/kg/injection, schedule: Q01DX005 (ip), vehicle: saline with Tween-80
# [6] = dose: 240.0 mg/kg/injection, schedule: Q01DX005 (ip), vehicle: saline with Tween-80
# [7] = dose: 12.5 mg/kg/injection, schedule: Q01DX005 (ip), vehicle: Klucel (hydroxypropylcellulose) (HPC)
# [8] = dose: 25.0 mg/kg/injection, schedule: Q01DX005 (ip), vehicle: Klucel (hydroxypropylcellulose) (HPC)
# [9] = dose: 50.0 mg/kg/injection, schedule: Q01DX009 (ip), vehicle: Klucel (hydroxypropylcellulose) (HPC)
# [10] = dose: 100.0 mg/kg/injection, schedule: Q01DX009 (ip), vehicle: Klucel (hydroxypropylcellulose) (HPC)
# [11] = dose: 200.0 mg/kg/injection, schedule: Q01DX009 (ip), vehicle: Klucel (hydroxypropylcellulose) (HPC)
# [12] = dose: 12.5 mg/kg/injection, schedule: Q01DX009 (ip), vehicle: Klucel (hydroxypropylcellulose) (HPC)
# [13] = dose: 25.0 mg/kg/injection, schedule: Q01DX009 (ip), vehicle: Klucel (hydroxypropylcellulose) (HPC)
# [14] = dose: 50.0 mg/kg/injection, schedule: Q01DX005 (ip), vehicle: Klucel (hydroxypropylcellulose) (HPC)
# [15] = dose: 100.0 mg/kg/injection, schedule: Q01DX005 (ip), vehicle: Klucel (hydroxypropylcellulose) (HPC)
smiles,measurement,setting,value
CC(O)C(NC(=O)C(Cc1ccc(O)cc1)NC(=O)OCc1ccccc1)C(=O)O (stereo not drawn) (Cbz-Tyr-Thr-OH; configuration not given here),T/C,"dose: 50.0 mg/kg/injection, schedule: Q01DX005 (ip), vehicle: suspension in saline",105 % of control
same,T/C,"dose: 100.0 mg/kg/injection, schedule: Q01DX005 (ip), vehicle: suspension in saline",96 % of control
same,T/C,"dose: 200.0 mg/kg/injection, schedule: Q01DX005 (ip), vehicle: suspension in saline",111 % of control
O=C(Nc1ccc(NC(=O)c2ccncc2)cc1)c1ccncc1,T/C,[1],97 % of control
same,T/C,[2],93 % of control
same,T/C,[3],97 % of control
Cc1nnc2n(N)c(=O)c(CC(=O)c3ccc(F)cc3)nn12,T/C,"dose: 60.0 mg/kg/injection, schedule: Q01DX005 (ip), vehicle: Klucel (hydroxypropylcellulose) (HPC)",96 % of control
same,T/C,"dose: 120.0 mg/kg/injection, schedule: Q01DX005 (ip), vehicle: Klucel (hydroxypropylcellulose) (HPC)",88 % of control
same,T/C,"dose: 240.0 mg/kg/injection, schedule: Q01DX005 (ip), vehicle: Klucel (hydroxypropylcellulose) (HPC)",90 % of control
CC(=O)Nc1ccc(/C=C/c2csnn2)cc1,T/C,[4],92 % of control
same,T/C,[5],87 % of control
same,T/C,[6],92 % of control
CC1=C(/C=C/C(C)=C/C=C/C(C)=C/C=C/C=C(C)/C=C/C=C(\C)C=O)C(C)(C)CCC1,T/C,[4],101 % of control
same,T/C,[5],92 % of control
same,T/C,[6],94 % of control
CN(C)CCCOc1nc2c(c(=O)n(C)c(=O)n2C)n1C (tested in a mixture with another compound),T/C,"dose: 6.25 mg/kg/injection, schedule: Q01DX005 (ip), vehicle: Klucel (hydroxypropylcellulose) (HPC)",100 % of control
same,T/C,[7],106 % of control
same,T/C,[8],110 % of control
CCOC(=O)Cc1ccc(-c2cn3c(n2)sc2ccccc23)cc1,T/C,[9],112 % of control
same,T/C,[10],103 % of control
same,T/C,[11],100 % of control
CC(C)(Oc1ccc(-c2cccc3ccccc23)cc1)C(=O)O,T/C,"dose: 6.25 mg/kg/injection, schedule: Q01DX009 (ip), vehicle: Klucel (hydroxypropylcellulose) (HPC)",97 % of control
same,T/C,[12],95 % of control
same,T/C,[13],101 % of control
same,T/C,[10],111 % of control
same,T/C,[11],119 % of control
CCCCCCCCCC(=O)Oc1c2ccoc2cc2oc(=O)ccc12,T/C,"dose: 100.0 mg/kg/injection, schedule: Q01DX001 (ip), vehicle: Klucel (hydroxypropylcellulose) (HPC)",98 % of control
same,T/C,"dose: 200.0 mg/kg/injection, schedule: Q01DX001 (ip), vehicle: Klucel (hydroxypropylcellulose) (HPC)",91 % of control
same,T/C,"dose: 400.0 mg/kg/injection, schedule: Q01DX001 (ip), vehicle: Klucel (hydroxypropylcellulose) (HPC)",103 % of control
Cn1c(=O)c2c(ncn2-c2ccc(N)cc2)n(C)c1=O,T/C,"dose: 1.56 mg/kg/injection, schedule: Q01DX005 (ip), vehicle: water",95 % of control
same,T/C,"dose: 3.12 mg/kg/injection, schedule: Q01DX005 (ip), vehicle: water",105 % of control
same,T/C,"dose: 6.25 mg/kg/injection, schedule: Q01DX005 (ip), vehicle: other",104 % of control
same,T/C,"dose: 6.25 mg/kg/injection, schedule: Q01DX005 (ip), vehicle: water",96 % of control
same,T/C,"dose: 12.5 mg/kg/injection, schedule: Q01DX005 (ip), vehicle: other",106 % of control
same,T/C,"dose: 12.5 mg/kg/injection, schedule: Q01DX005 (ip), vehicle: water",102 % of control
same,T/C,"dose: 25.0 mg/kg/injection, schedule: Q01DX005 (ip), vehicle: other",101 % of control
same,T/C,"dose: 50.0 mg/kg/injection, schedule: Q01DX005 (ip), vehicle: water",101 % of control
COc1ccc(C(=O)C(CN(C)C)CN(C)C)c(OC)c1,T/C,"dose: 7.5 mg/kg/injection, schedule: Q01DX005 (ip), vehicle: saline",121 % of control
same,T/C,"dose: 15.0 mg/kg/injection, schedule: Q01DX005 (ip), vehicle: saline",108 % of control
CC(C)CC(NC(=O)C(CC(C)C)NC(=O)OCc1ccccc1)C(=O)O (centres undefined),T/C,[1],100 % of control
same,T/C,[2],102 % of control
same,T/C,[3],94 % of control
COc1ccc(Cl)cc1NC(=O)c1ccccc1F,T/C,[9],120 % of control
same,T/C,[10],104 % of control
same,T/C,[11],118 % of control
CC1CN1c1nc(N2CC2C)nc(N2CC2C)n1 (centres undefined),T/C,"dose: 1.56 mg/kg/injection, schedule: Q01DX009 (ip), vehicle: saline with Tween-80",94 % of control
same,T/C,"dose: 3.13 mg/kg/injection, schedule: Q01DX009 (ip), vehicle: saline with Tween-80",98 % of control
C/C(=N\NC(=S)N1CCC(C)CC1)c1nccs1,T/C,"dose: 12.5 mg/kg/injection, schedule: Q01DX005 (ip), vehicle: saline with Tween-80",106 % of control
same,T/C,"dose: 25.0 mg/kg/injection, schedule: Q01DX005 (ip), vehicle: saline with Tween-80",116 % of control
same,T/C,[1],118 % of control
COc1ccc(Cc2ccc[nH]2)cc1,T/C,"dose: 100.0 mg/kg/injection, schedule: Q01DX001 (ip), vehicle: distilled water + alcohol",97 % of control
same,T/C,"dose: 200.0 mg/kg/injection, schedule: Q01DX001 (ip), vehicle: distilled water + alcohol",97 % of control
same,T/C,"dose: 400.0 mg/kg/injection, schedule: Q01DX001 (ip), vehicle: distilled water + alcohol",96 % of control
CCOC(=O)/C=C/C(=O)N1CCN(C(=O)/C=C/C(=O)OCC)C(C)C1 (centres undefined),T/C,[14],113 % of control
same,T/C,"dose: 90.0 mg/kg/injection, schedule: Q01DX005 (ip), vehicle: Klucel (hydroxypropylcellulose) (HPC)",108 % of control
same,T/C,[15],116 % of control
same,T/C,"dose: 133.0 mg/kg/injection, schedule: Q01DX005 (ip), vehicle: Klucel (hydroxypropylcellulose) (HPC)",112 % of control
NC(=S)c1cccc(-c2ccccn2)n1,T/C,"dose: 100.0 mg/kg/injection, schedule: Q04DX003 (ip), vehicle: Klucel (hydroxypropylcellulose) (HPC)",102 % of control
same,T/C,"dose: 200.0 mg/kg/injection, schedule: Q04DX003 (ip), vehicle: Klucel (hydroxypropylcellulose) (HPC)",103 % of control
O=C1C=CC(=O)N1c1ccc(O)cc1,T/C,"dose: 1.25 mg/kg/injection, schedule: Q01DX009 (ip), vehicle: saline sonified",95 % of control
same,T/C,"dose: 2.5 mg/kg/injection, schedule: Q01DX009 (ip), vehicle: saline sonified",95 % of control
CN1c2ccccc2S(=O)(=O)n2c(-c3ccccc3Cl)nnc21,T/C,"dose: 25.0 mg/kg/injection, schedule: Q01DX001 (ip), vehicle: saline with Tween-80",97 % of control
same,T/C,"dose: 50.0 mg/kg/injection, schedule: Q01DX001 (ip), vehicle: saline with Tween-80",96 % of control
same,T/C,"dose: 100.0 mg/kg/injection, schedule: Q01DX001 (ip), vehicle: saline with Tween-80",100 % of control and 95 % of control
same,T/C,"dose: 400.0 mg/kg/injection, schedule: Q01DX001 (ip), vehicle: saline with Tween-80",90 % of control
CN(C)CCCNc1ccc2ccc3c(NCCCN(C)C)ccc4ccc1c2c43,T/C,[12],99 % of control
same,T/C,[13],102 % of control
same,T/C,[9],99 % of control and 112 % of control
same,T/C,[10],103 % of control
Cc1cc(Cl)n2nc(-c3ccc(Cl)cc3)nc2n1,T/C,[12],106 % of control
same,T/C,[13],100 % of control
same,T/C,[9],109 % of control and 110 % of control
COc1cc(C=Nc2cc(Cl)c(O)c(Cl)c2)ccc1N(CCCl)CCCl,T/C,"dose: 12.0 mg/kg/injection, schedule: Q04DX003 (ip), vehicle: saline",204 % of control
same,T/C,"dose: 17.0 mg/kg/injection, schedule: Q04DX003 (ip), vehicle: saline",263 % of control
same,T/C,"dose: 25.0 mg/kg/injection, schedule: Q04DX003 (ip), vehicle: saline",100 % of control
COc1cc(OC)c(NC(=O)O/N=C(\c2ccccc2)C(O)c2ccccc2)cc1Cl (centres undefined),T/C,"dose: 50.0 mg/kg/injection, schedule: Q01DX009 (ip), vehicle: saline with Tween-80",91 % of control
same,T/C,"dose: 100.0 mg/kg/injection, schedule: Q01DX009 (ip), vehicle: saline with Tween-80",91 % of control
same,T/C,"dose: 200.0 mg/kg/injection, schedule: Q01DX009 (ip), vehicle: saline with Tween-80",90 % of control
Cc1ccc(C(=NN=C(c2ccc(C)cc2)c2ccc(C)cc2)c2ccc(C)cc2)cc1,T/C,"dose: 100.0 mg/kg/injection, schedule: Q04DX002 (ip), vehicle: saline with Tween-80",90 % of control
same,T/C,"dose: 200.0 mg/kg/injection, schedule: Q04DX002 (ip), vehicle: saline with Tween-80",93 % of control
O=CC(O)C(O)C(O)COc1cc(CO)cc2c1C(=O)c1ccccc1C2=O (centres undefined),T/C,[7],100 % of control
same,T/C,[8],107 % of control
same,T/C,[14],106 % of control and 110 % of control
same,T/C,[15],106 % of control and 107 % of control
